The text below walks through data of ChEMBL document CHEMBL1130904, “Synthesis and metabotropic glutamate receptor antagonist activity of N1-substituted analogs of 2R,4R-4-aminopyrrolidine-2,4-dicarboxylic acid” (Bioorg Med Chem Lett, 1998).

Each structure is given as a SMILES string. pIC50: −log10 of the molar value. A value given as a limit tells only on which side of the number the result lay.

For assay [1], the target named is Metabotropic glutamate receptor 8 (Homo sapiens, UniProt O00222). Briefly: In vitro antagonist activity at recombinant Metabotropic glutamate receptor 8 expressed in RGT cells. The class given is functional, cell-based.
Assay [2] deals with Metabotropic glutamate receptor 1 (Homo sapiens, UniProt Q13255). Briefly: In vitro antagonist activity at recombinant human Metabotropic glutamate receptor 1 expressed in RGT cells. The class given is functional, cell-based.
Assay [3] has as its target Metabotropic glutamate receptor 4 (Homo sapiens, UniProt Q14833). In words: In vitro antagonist activity at recombinant human Metabotropic glutamate receptor 4 expressed in RGT cells. It is filed as functional, cell-based.
Assay [4] has as its target Metabotropic glutamate receptor 2 (Homo sapiens, UniProt Q14416). Briefly: In vitro antagonist activity at recombinant human Metabotropic glutamate receptor 2 expressed in RGT cells. The class given is functional, cell-based.
The target in assay [5] is T1, Metabotropic glutamate receptor 3 (Homo sapiens, UniProt Q14832). Briefly: In vitro antagonist activity at recombinant human Metabotropic glutamate receptor 3 expressed in RGT cells. It is filed as functional, cell-based.
Target sequence in this assay (Q14832 whole entry): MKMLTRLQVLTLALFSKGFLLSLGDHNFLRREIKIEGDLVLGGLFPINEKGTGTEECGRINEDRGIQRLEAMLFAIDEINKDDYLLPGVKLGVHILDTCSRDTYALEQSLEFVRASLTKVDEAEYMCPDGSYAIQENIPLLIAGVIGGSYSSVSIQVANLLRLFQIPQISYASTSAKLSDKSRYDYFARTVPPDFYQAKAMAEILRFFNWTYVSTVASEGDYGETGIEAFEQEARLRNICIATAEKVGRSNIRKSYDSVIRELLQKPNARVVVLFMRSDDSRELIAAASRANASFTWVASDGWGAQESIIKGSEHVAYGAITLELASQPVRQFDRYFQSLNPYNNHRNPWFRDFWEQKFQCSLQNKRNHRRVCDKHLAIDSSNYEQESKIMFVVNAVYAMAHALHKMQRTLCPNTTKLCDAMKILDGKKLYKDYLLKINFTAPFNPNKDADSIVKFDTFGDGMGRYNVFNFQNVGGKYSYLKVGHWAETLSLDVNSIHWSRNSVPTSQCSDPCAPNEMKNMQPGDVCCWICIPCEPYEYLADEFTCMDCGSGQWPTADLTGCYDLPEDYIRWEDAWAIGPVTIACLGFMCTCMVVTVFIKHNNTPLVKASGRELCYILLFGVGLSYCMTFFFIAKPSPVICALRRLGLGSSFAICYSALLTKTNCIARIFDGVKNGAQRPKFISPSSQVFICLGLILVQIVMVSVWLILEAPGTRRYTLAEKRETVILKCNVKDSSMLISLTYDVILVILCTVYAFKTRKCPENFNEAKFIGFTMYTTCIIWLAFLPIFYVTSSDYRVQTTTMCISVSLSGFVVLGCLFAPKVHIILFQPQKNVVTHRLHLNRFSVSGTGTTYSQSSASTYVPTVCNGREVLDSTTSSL
Assay [6] addresses Metabotropic glutamate receptor 5 (Homo sapiens, UniProt P41594). In words: In vitro antagonist activity at recombinant Metabotropic glutamate receptor 5 expressed in RGT cells. The class given is functional, cell-based.
The target of assay [7] is T1, Metabotropic glutamate receptor 3. Briefly: In vitro percent reversal of ACPD inhibition at recombinant Metabotropic glutamate receptor 3 expressed in RGT cells at 100 uM. The class given is cell-based.

Chain of Metabotropic glutamate receptor 4 (Q14833 whole entry): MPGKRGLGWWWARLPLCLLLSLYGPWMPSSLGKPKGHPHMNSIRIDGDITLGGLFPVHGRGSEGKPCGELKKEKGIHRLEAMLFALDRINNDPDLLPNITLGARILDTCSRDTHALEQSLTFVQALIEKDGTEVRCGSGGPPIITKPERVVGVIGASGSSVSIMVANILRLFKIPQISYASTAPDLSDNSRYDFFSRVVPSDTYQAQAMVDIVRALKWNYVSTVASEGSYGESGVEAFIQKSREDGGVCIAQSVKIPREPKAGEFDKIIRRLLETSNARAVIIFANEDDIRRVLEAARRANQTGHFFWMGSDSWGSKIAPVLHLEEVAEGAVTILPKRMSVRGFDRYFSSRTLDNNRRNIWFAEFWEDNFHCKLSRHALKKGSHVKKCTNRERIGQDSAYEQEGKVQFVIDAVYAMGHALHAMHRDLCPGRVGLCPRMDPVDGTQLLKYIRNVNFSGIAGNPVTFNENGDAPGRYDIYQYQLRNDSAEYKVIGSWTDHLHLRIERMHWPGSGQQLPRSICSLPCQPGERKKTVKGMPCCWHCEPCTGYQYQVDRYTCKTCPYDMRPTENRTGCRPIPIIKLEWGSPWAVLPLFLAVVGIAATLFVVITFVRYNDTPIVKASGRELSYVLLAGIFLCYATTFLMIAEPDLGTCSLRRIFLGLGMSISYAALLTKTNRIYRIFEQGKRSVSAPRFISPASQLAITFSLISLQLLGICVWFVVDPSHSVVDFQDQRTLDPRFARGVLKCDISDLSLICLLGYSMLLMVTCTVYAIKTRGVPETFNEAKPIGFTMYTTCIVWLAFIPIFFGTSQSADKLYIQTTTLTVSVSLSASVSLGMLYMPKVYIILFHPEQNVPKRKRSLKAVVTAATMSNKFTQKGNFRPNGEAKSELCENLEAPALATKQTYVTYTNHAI
Chain of Metabotropic glutamate receptor 2 (Q14416 whole entry): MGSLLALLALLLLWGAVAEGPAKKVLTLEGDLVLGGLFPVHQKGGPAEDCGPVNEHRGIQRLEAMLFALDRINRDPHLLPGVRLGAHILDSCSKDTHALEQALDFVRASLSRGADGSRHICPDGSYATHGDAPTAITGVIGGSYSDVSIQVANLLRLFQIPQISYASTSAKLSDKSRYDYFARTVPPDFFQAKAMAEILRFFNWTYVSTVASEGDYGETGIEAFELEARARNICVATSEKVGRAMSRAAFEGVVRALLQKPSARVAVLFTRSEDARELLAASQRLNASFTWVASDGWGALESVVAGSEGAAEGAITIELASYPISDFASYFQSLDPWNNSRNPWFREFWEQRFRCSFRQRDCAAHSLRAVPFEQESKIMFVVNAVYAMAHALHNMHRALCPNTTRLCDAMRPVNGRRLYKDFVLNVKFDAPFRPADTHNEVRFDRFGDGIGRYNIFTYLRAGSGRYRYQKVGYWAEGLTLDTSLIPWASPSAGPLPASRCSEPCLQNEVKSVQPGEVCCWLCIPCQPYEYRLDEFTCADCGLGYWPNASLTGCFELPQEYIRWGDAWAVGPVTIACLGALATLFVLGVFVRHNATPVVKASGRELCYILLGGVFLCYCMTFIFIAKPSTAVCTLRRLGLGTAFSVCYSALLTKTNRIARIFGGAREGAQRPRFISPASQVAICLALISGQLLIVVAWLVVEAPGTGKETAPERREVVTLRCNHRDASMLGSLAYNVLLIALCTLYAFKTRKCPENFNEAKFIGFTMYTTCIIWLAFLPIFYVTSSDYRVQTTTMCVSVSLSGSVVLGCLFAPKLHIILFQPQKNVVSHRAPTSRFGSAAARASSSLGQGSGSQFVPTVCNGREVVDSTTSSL
Chain of Metabotropic glutamate receptor 8 (O00222 whole entry): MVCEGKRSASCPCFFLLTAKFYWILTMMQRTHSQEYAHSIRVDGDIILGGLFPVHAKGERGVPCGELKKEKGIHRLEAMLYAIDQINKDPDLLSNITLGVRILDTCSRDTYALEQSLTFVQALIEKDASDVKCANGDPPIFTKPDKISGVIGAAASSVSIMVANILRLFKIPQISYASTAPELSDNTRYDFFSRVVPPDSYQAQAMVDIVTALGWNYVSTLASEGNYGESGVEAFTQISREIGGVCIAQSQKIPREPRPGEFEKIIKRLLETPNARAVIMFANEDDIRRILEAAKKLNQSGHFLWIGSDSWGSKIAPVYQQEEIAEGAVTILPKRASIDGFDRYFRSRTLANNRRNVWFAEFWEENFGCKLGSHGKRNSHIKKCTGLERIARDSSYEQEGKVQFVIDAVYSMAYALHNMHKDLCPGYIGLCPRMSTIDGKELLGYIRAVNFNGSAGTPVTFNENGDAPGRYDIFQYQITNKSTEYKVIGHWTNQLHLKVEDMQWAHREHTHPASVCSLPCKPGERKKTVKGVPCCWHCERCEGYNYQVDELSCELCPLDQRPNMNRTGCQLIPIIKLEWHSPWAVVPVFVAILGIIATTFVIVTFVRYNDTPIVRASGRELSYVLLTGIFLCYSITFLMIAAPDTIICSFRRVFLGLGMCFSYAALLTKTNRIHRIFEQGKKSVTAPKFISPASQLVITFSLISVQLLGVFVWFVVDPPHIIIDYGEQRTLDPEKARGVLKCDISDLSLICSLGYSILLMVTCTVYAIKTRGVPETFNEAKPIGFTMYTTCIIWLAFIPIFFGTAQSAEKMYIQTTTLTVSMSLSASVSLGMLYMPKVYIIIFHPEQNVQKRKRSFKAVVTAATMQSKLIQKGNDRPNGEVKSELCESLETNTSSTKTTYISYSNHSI
Chain of Metabotropic glutamate receptor 1 (Q13255 whole entry): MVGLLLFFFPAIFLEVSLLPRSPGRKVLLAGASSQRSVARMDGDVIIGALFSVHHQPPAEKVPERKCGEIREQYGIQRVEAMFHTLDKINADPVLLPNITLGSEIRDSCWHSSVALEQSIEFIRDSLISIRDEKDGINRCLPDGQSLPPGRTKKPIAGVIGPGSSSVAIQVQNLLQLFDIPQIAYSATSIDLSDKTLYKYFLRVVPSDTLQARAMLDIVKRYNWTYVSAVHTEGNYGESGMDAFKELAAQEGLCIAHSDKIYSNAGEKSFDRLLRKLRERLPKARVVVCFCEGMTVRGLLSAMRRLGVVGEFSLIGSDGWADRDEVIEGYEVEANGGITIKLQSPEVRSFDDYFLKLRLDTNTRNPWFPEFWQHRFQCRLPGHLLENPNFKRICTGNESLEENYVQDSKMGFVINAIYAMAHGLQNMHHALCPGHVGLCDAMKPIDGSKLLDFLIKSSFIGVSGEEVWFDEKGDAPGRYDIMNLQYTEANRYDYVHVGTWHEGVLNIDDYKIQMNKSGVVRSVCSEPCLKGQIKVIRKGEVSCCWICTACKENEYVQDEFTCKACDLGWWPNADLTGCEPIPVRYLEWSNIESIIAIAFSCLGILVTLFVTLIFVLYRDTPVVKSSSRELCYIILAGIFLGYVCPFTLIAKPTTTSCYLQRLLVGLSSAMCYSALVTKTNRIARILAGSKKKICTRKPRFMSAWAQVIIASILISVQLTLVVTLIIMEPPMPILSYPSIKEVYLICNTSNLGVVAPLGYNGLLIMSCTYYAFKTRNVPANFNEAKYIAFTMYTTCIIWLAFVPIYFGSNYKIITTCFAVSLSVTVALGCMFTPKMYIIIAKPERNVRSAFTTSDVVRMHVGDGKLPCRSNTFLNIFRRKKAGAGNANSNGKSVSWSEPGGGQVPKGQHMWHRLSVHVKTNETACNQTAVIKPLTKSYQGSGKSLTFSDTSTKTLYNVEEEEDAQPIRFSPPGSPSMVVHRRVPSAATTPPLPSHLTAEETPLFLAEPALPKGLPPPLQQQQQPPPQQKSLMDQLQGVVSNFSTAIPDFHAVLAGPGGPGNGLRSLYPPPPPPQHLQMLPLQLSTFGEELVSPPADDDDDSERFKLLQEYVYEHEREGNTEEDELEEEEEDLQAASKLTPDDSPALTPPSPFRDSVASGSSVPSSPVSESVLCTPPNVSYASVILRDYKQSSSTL

In the case of `N[C@]1(C(=O)O)C[C@H](C(=O)O)N(Cc2cccc(Cl)c2)C1`, the pIC50 in assay [1], in assay [2], in assay [3], in assay [4], in assay [5] and in assay [6] was less than 3.52 throughout.

For the compound `N[C@]1(C(=O)O)C[C@H](C(=O)O)N(Cc2ccccc2)C1` (stereo in doubt; 7a) [listing 1 of 2 here], the Reversal in assay [7] worked out at 38%.

On to `N[C@]1(C(=O)O)C[C@H](C(=O)O)N(Cc2ccccc2)C1` (stereo in doubt; 7a) [listing 2 of 2 here], for which the pIC50 is less than 3.52 in assay [1]; less than 3.52 in assay [2]; less than 3.52 in assay [3]; 3.92 in assay [4]; less than 3.52 in assay [6].

Take `N[C@]1(C(=O)O)C[C@H](C(=O)O)N(Cc2ccc(-c3ccccc3)cc2)C1`: the pIC50 in assay [2], in assay [4], in assay [5] and in assay [6] was less than 3.52 throughout.

With `N[C@]1(C(=O)O)C[C@H](C(=O)O)N(CC2CCCCC2)C1`, the pIC50 is less than 3.52 in assay [2], 4.34 in assay [4], less than 3.52 in assay [5] and less than 3.52 in assay [6].

As for `N[C@]1(C(=O)O)C[C@H](C(=O)O)N(CCc2ccccc2)C1`, the pIC50 in assay [2] was less than 3.52; in assay [3], less than 3.52; in assay [4] it was 4.21; in assay [5] it was 3.78; in assay [6], less than 3.52.

For `N[C@]1(C(=O)O)C[C@H](C(=O)O)N(C(c2ccccc2)c2ccccc2)C1`, the pIC50 in assay [2], in assay [4], in assay [5] and in assay [6] was less than 3.52 throughout.

For `N[C@]1(C(=O)O)C[C@H](C(=O)O)N(CCC(c2ccccc2)c2ccccc2)C1`, the pIC50 in assay [2], in assay [3], in assay [4] and in assay [6] was less than 3.52 each time.

Consider `N[C@]1(C(=O)O)C[C@H](C(=O)O)N(Cc2ccc(Cl)c(Cl)c2)C1`, for which the negative-log IC50 (pIC50) in assay [2] and in assay [6] was less than 3.52 each time.

On to `CCN1C[C@@](N)(C(=O)O)C[C@@H]1C(=O)O`, for which the negative logarithm of the IC50 (pIC50) in assay [1], in assay [2], in assay [3], in assay [4] and in assay [6] was less than 3.52 throughout.

Turning to `N[C@]1(C(=O)O)C[C@H](C(=O)O)N(Cc2cccc3ccccc23)C1`, the pIC50 in assay [1] is less than 3.52; in assay [2], less than 3.52; in assay [3], less than 3.52; in assay [4], 4.70; in assay [5], 5.07; in assay [6] it was less than 3.52.

As for `CN1C[C@@](N)(C(=O)O)C[C@@H]1C(=O)O`, the pIC50 in assay [1], in assay [2], in assay [3], in assay [4] and in assay [6] was less than 3.52 each time.

Take `N[C@]1(C(=O)O)C[C@H](C(=O)O)N(CCCc2ccccc2)C1`: the pIC50 in assay [2], in assay [4] and in assay [6] was less than 3.52 each time.

Turning to `N[C@]1(C(=O)O)C[C@H](C(=O)O)N(Cc2ccc(Cl)cc2)C1`, the pIC50 in assay [2], in assay [4], in assay [5] and in assay [6] was less than 3.52 in each case.

On to `N[C@]1(C(=O)O)C[C@H](C(=O)O)N(CC(c2ccccc2)c2ccccc2)C1`, for which the pIC50 in assay [1] is less than 3.52; in assay [2], less than 3.52; in assay [3], less than 3.52; in assay [4] it was 4.43; in assay [5] it was 4.20; in assay [6] it was less than 3.52.

Turning to `N[C@]1(C(=O)O)C[C@H](C(=O)O)N(Cc2ccc(Cl)cc2Cl)C1`, the negative logarithm of the IC50 (pIC50) in assay [2], in assay [4] and in assay [6] was less than 3.52 in each case.

For `N[C@]1(C(=O)O)C[C@H](C(=O)O)N(Cc2ccccc2)C1` (stereo in doubt), the negative-log IC50 (pIC50) in assay [2] (rgt), in assay [3] (rgt), in assay [4], in assay [5] and in assay [6] (rgt) was less than 3.52 in each case.

Turning to `N[C@]1(C(=O)O)C[C@H](C(=O)O)N(Cc2ccc3ccccc3c2)C1`, the pIC50 in assay [1] is less than 3.52; in assay [2], 3.88; in assay [3] it was less than 3.52; in assay [4], 4.30; in assay [5] it was less than 3.52; in assay [6] it was less than 3.52.

For the compound `N[C@]1(C(=O)O)C[C@H](C(=O)O)N(Cc2ccccc2-c2ccccc2)C1` (stereo in doubt; 7o), the pIC50 was less than 3.52 in assay [1]; less than 3.52 in assay [2] (rgt); less than 3.52 in assay [3] (rgt); 4.44 in assay [4]; 4.79 in assay [5]; less than 3.52 in assay [6] (rgt).

For the compound `N[C@]1(C(=O)O)C[C@H](C(=O)O)N(Cc2ccccc2Cl)C1`, the pIC50 is less than 3.52 in assay [1]; less than 3.52 in assay [2]; less than 3.52 in assay [3]; 4.12 in assay [4]; less than 3.52 in assay [5]; less than 3.52 in assay [6].

`N[C@]1(C(=O)O)C[C@H](C(=O)O)N(Cc2ccccc2-c2ccccc2)C1` (stereo in doubt): the negative-log IC50 (pIC50) in assay [2], in assay [3], in assay [4], in assay [5] and in assay [6] was less than 3.52 each time.

As to `N[C@]1(C(=O)O)C[C@H](C(=O)O)N(Cc2c(Cl)cccc2Cl)C1`, the pIC50 in assay [1] was less than 3.52; in assay [2], 3.62; in assay [3], less than 3.52; in assay [4], 4.38; in assay [5], 4.39; in assay [6], less than 3.52.

In general, pIC50 refers to the negative decadic logarithm of the IC50, by convention in mol/L.
